# Assay results as given in patent publication US9629883B2, “Anticaries compositions and probiotics/prebiotics” (CENTRO SUPERIOR DE INVESTIGACIÓN EN SALUD PÚBLICA (CSISP), priority 2010, dated 2017).
# Bridges are numbered along the chain shown (N, C = ends). Where no end group is shown, it is not given here.
# Columns and labels:
# [1] = test system: S. sobrinus; assay: Growth curves (optical density) of S. sobrinus in liquid BHI culture; format: cell-based, Streptococcus sobrinus; conditions: chemically synthesised peptide, purity greater than 95%, re-suspended in ultrapure water, FIG. 6B
# Procedure: Subsequently, […], respectively, were added to a liquid culture of S. mutans and to a liquid culture of S. sobrinus, and the optical density was measured in a 48-well Fluostar luminometer every half-hour, with each treatment in triplicate, for 12-19 hours.
# [2] = test system: S. mutans; assay: Growth curves (optical density) of S. mutans in liquid BHI culture; format: cell-based, Streptococcus mutans
# Procedure: Subsequently, 50-, 100- and 150-μl volumes of these two fractions, 3-10 kD and 0-3 kD, respectively, were added to a liquid culture of S. mutans and to a liquid culture of S. sobrinus, and the optical density was measured in a 48-well Fluostar luminometer every half-hour, with each treatment in triplicate, for 12-19 hours. […]
# In order to corroborate that the peptides identified are those responsible for the inhibitory activity against cariogenic bacteria, the S12E (bacteriocins of bacterial origin) and T5A (peptide of human origin with a structure similar to that of defensins) peptides were chemically synthesised, obtaining approximately 4 mg of each of said peptides with a purity greater than 80%. They were totally re-suspended in 0.1% trichloroacetic acid (TCA) and the experiments designed to test the inhibition of liquid cultures of S. mutans by said chemically-synthesised compounds were performed. […]
Substance,inhibitory effect on S. sobrinus [1],"inhibitory activity against cultures of S. mutans ([2]; chemically synthesised peptide, purity greater than 80%, re-suspended in 0.1% TCA, FIG. 5)","inhibitory effect on S. mutans ([2]; chemically synthesised peptide, purity greater than 95%, re-suspended in ultrapure water, FIG. 6A)","inhibitory effect on liquid cultures of S. mutans ([2]; chemically synthesised peptide, first synthesis without disulfide bridge)","inhibition of the growth of S. mutans at maximum peptide concentration ([2]; synthesised peptide with disulfide bridge between cysteines 3 and 12, 80 μg)","inhibition of the growth of S. mutans ([2]; synthesised peptide with disulfide bridge between cysteines 3 and 12, different concentrations, FIG. 7)"
"S12E peptide: chemically synthesised bacteriocin-type anti-microbial peptide of bacterial origin, 39 amino acids, from S12E fosmid (MPFEAVGEARLAARTSRPGDRGPGNRAEESPDSAEQGGG; Streptococcus species)",dose-dependent inhibitory effect,inhibitory activity against cultures of S. mutans was confirmed,dose-dependent inhibitory effect,–,–,–
"T5A peptide: chemically synthesised defensin-type peptide of human origin, 26 amino acids; active form has disulfide bridge between cysteines 3 and 12 (MSCKKESLGSKCNYILLWYQPTESPH; disulfide 3-12; listed as Homo sapiens)",–,–,–,no inhibitory effect,total inhibition of the growth,capable of inhibiting the growth
